Values of other authors, collected in paper PMC4033579 (Journal of experimental therapeutics & oncology, 2012).

Columns and labels:
[1] = test system: breast, ovarian, prostate tumor cells; conditions: prostate cells in culture
[2] = test system: human tumor xenografts

Cc1cc(Nc2nc(N[C@@H](C)c3ncc(F)cn3)ncc2Cl)[nH]n1 [AZD 1840]
cytotoxicity at concentrations that inhibit Tyr705 phosphorylation [1]: not cytotoxic
angiogenesis in human tumor xenografts [2]: reduction in angiogenesis
growth of human tumor xenografts [2]: reduced growth
